# In patent US10544137B2, “PI3K inhibitor, and pharmaceutically acceptable salt, polycrystalline form, and application thereof” (SHANGHAI HAIYAN PHARMACEUTICAL TECHNOLOGY CO., LTD., priority 2016, dated 2020):
# Where two headings read alike, the source gives them in different places.
# Legend:
# PI3K-α (p110α/p85α) = target: T1, PI3K-α (p110α/p85α) (Homo sapiens, UniProt P42336); assay: Determination of PI3K kinase activity (ADP Transcreener fluorescence polarization), PI3K-α; assay type: biochemical; settings: compared with BKM-120
# T1 construct: purchased Invitrogen PV4788
# T1 sequence (P42336 whole entry): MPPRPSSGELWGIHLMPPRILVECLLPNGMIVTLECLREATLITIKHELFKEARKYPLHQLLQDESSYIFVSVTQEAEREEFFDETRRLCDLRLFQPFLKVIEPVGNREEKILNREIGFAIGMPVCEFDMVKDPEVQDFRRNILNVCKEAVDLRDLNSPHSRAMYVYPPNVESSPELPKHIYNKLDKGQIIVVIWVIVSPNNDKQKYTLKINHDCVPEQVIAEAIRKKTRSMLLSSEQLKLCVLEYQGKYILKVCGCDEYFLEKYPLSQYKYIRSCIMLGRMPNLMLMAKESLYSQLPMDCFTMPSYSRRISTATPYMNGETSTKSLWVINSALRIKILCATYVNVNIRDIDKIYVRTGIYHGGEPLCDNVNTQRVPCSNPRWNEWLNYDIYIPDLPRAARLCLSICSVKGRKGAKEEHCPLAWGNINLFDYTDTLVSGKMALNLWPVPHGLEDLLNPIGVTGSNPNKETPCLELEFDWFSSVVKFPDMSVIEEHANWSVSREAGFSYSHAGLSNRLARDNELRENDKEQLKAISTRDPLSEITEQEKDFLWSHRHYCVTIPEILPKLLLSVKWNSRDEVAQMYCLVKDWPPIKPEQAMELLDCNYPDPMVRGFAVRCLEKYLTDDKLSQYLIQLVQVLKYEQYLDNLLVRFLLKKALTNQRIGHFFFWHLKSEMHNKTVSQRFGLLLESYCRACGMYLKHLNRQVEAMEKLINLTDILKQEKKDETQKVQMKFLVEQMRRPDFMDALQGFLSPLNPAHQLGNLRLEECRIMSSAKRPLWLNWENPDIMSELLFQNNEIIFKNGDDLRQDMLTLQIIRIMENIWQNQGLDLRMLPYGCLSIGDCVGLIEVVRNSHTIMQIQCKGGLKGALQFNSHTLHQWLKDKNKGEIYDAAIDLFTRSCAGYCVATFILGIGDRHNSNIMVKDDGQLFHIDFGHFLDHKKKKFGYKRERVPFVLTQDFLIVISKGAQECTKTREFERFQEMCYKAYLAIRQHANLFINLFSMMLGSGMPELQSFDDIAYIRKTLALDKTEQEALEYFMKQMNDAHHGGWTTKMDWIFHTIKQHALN
# T1 sequence (P27986 whole entry partner): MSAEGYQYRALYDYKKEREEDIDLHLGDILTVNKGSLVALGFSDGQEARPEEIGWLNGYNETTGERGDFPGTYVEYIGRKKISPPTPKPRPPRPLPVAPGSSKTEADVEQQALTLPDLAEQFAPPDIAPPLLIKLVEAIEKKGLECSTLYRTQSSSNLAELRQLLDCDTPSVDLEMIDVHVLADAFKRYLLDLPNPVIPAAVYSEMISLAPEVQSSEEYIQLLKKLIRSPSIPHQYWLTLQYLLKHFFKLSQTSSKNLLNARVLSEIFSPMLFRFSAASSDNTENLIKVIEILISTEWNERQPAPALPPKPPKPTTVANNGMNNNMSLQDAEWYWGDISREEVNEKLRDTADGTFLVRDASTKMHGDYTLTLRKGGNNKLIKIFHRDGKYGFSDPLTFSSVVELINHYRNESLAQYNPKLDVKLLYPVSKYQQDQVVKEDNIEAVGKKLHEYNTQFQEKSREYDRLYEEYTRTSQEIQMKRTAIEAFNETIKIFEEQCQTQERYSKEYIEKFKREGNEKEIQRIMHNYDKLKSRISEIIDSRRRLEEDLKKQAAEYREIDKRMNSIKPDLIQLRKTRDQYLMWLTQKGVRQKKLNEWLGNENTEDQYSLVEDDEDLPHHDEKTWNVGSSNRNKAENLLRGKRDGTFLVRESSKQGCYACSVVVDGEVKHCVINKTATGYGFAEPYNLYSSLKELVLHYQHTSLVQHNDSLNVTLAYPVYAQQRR
# Method: The inhibition of PI3K kinase activity by the compound to be tested was determined by the following method. The working concentration of each component in the 25 μL enzyme reaction system was: p110α/p85α 3 ng (or p110β/p85α 60 ng, or p110δ/p85α 90 ng, or p110γ 100 ng), ATP 10 μM, PIP2: PS (Invitrogen PV5100) 30 μM and the DMSO concentration was 2% after addition of the compound to be tested.
# The compound to be tested was gradiently diluted 3 times (0.00046-1 μM, 8 concentration points) with 10% DMSO. 5 μL of the compound to be tested was added to each well of a 96-well plate (Greiner 675076) in duplicate. […] 10 μL of ATP/PIP2: PS and 10 μL of the PI3K enzyme working solution were added to each well in a 96-well plate. The plate was shaken and mixed uniformly, and then incubated at 25° C. for 1 hour. […] After completion of the enzyme reaction, 25 μL of ADP assay solution (1% 100×ADP tracer, 0.79% ADP antibody and 10% 10× reaction stop solution) was added and incubated at 25° C. for 1 hour. Fluorescence polarization value [mP] of each well was measured with a Perkin Elmer Victor X5 Fluorescent Microplate. The ADP concentration [ADP] was calculated from the ADP/ATP standard curve and the IC50 values were calculated using the XLFit software.
# [1] = Solubility experiment in 0.1M HCl, buffers and water; assay type: physicochemical; settings: ambient temperature; for solubility at 30 min: thermodynamic from solid
# Method: The solubilities of the following four kinds of salt and free base sample in 0.1M HCl, pH 4.5 buffer, pH 6.8 buffer, and water were tested at ambient temperature. In the test, the calibration curves of free base and four kinds of salt were plotted. 3 mg of solid samples of free base and four kinds of salt were weighed, respectively, and then 1 ml of the solvent was added, centrifuged after 30 min ultrasound. The supernatant was taken, and injected through the membrane, and the solubility was tested.
# NIH-3T3 cells = assay: Cytotoxicity in normal cell line NIH-3T3 (MTT assay); assay type: cell-based
# Method: The MTT assay procedure and steps were carried out as well known to those skilled in the art, and all the reagents used in the methods were commercially available.
# The cells in logarithmic growth phase were digested with 0.25% EDTA trypsin (Gibco, 25200-056) and resuspended in fresh medium. 90 μL of the cell suspension was inoculated into a 96-well cell culture plate (BD Faclon 353072) with a suitable cell density and cultured at 37° C. under 5% CO2. After the cells adhered, 10 μL of the test compound at different concentrations (0.0046-10 μM, 8 concentration points) was added and incubated for another 72 h. 10 μL of MTT (5 mg/mL PBS solution) (Sigma, M5655) was added to react for 4 h. The absorbance at 492 nm was measured by using Thermo Scientific Multiskan MK3 microplate reader and IC50 was calculated using XLFIT 5.0 software (UK IDBS).
# [2] = Metabolism stability assay in liver microsomes; assay type: in vitro ADME, mouse; settings: liver microsomal metabolism in mice
# Method: Buffer A: 1 L solution of 100 mM potassium dihydrogen phosphate containing 1 mM EDTA (Sigma, V900157-100G) was prepared. Buffer B: 1 L solution of 100 mM dipotassium hydrogen phosphate containing 1 mM EDTA was prepared. Buffer C: 700 mL of buffer B was taken out and titrated with buffer A to pH 7.4.
# 2.1 10 μl of 10 mM compound to be tested and 10 μl of 10 mM ketanserin were taken out and 190 μl of pure acetonitrile was added to each of them to prepare 500 μM compound to be tested and ketanserin, respectively.
# 2.2 20 μl (20 mg/mL) of liver microsomes (XENOTECH, H0610) stock solution was added to 513.4 μl of buffer C on wet ice. 0.75 mg/mL liver microsomal solution was obtained.
# 2.3 1.5 μl of each of the above-mentioned compound to be tested and ketanserin solution was added to 498.5 μl of liver microsomal solution (0.7 5 mg/mL) respectively on wet ice. 1.5 μM mixed solution of compound to be tested and 1.5 μM mixed solution of ketanserin were obtained. […]
# 2.10 The sample was diluted with pure water in accordance with the ratio of 1:1 and detected by LC/MS. […]
# Wherein, the K value and the proportional factor were calculated by those skilled in the art according to the methods described in the prior art and contained in the instructions of the liver microsome product.
smiles,measurement,setting,value
"CS(=O)(=O)C1(c2cc(-c3cnc(N)cc3Cl)nc(N3CCOCC3)n2)CC1 [Compound of formula X, 4-chloro-5-(6-(1-(methylsulfonyl)cyclopropyl)-2-morpholinopyrimidin-4-yl)pyridin-2-amine]",increase of inhibitory activity against PI3K-α kinase versus BKM-120,PI3K-α (p110α/p85α),about 10 times
same,Solubility (mg/mL) 0.1M HCl,"[1]; 0.1M HCl, listed as Free base",>2.973 mg/mL
same,solubility at 30 min,"[1]; pH 4.5 buffer, pH 4.5, aqueous buffer, pH 4.5 buffer, read-out: Solubility (mg/mL) pH 4.5",0.025 mg/mL
same,solubility at 30 min,"[1]; pH 6.8 buffer, pH 6.8, aqueous buffer, pH 6.8 buffer, read-out: Solubility (mg/mL) pH 6.8",0.015 mg/mL
same,Solubility (mg/mL) H2O,"[1]; water, listed as Free base",0.016 mg/mL
same,cytotoxicity in normal cell lines,NIH-3T3 cells,relatively low cytotoxicity
same,Clearance,[2],108.9 mL/min/kg
